Publication PMC10529594, “Strasseriolides display in vitro and in vivo activity against trypanosomal parasites and cause morphological and size defects in Trypanosoma cruzi” (PLOS Neglected Tropical Diseases, 2023)
Where “and” joins values, the source holds several entries; their conditions need not be identical. Identical values can stand only once. Like-named read-outs stand apart in the source and are kept apart here.

Experiments:
[1] = tested on: T. cruzi Tulahuen C4 intracellular amastigotes; test: β-D-galactosidase transgenic T. cruzi assay (intracellular amastigotes in L6 cells, CPRG); assay type: cell-based; details: Trypanosoma cruzi; for inhibition at 0.00152588 µM / inhibition at 0.00305176 µM / inhibition at 0.00610352 µM / inhibition at 0.012207 µM / inhibition at 0.0244141 µM / inhibition at 0.0488281 µM / inhibition at 0.0976562 µM / inhibition at 0.195312 µM / inhibition at 0.390625 µM / inhibition at 0.78125 µM / inhibition at 1.5625 µM / inhibition at 3.125 µM / inhibition at 6.25 µM / inhibition at 12.5 µM / inhibition at 25 µM / inhibition at 50 µM: TULAHUEN, L6, T. cruzi amastigotes, 96-hour treatment, read-out: Growth inhibition (%) Average; for EC50: Tulahuen C4 in L6 cells, 96 h, CPRG
Experimental: (§1) The Trypanosoma cruzi Tulahuen strain used is a genetically modified strain that expresses the Escherichia coli β-galactosidase gene, lacZ [31]. It was kindly supplied by Marcel Kaiser (Swiss Tropical and Public Health Institute). The T. cruzi Tulahuen C4 strain was cultured in RPMI-1640 supplemented with 10% inactivated FBS (iFBS), 1.7 mM L-glutamine, 100 U/mL penicillin, and […] at 37°C and 5% CO2. L6 rat skeletal muscle cells were purchased from ATCC (reference CRL-1458) and used as host cells for infection with transgenic T. cruzi trypomastigotes. Epimastigotes were obtained by differentiation in LIT medium with 10% iFBS at 28°C from trypomastigote forms.
A Thermo Scientific Multidrop Combi dispenser was used to dispense 55 μL of T. cruzi infected L6 cells (2 ×10^3 cells per well) into 384-well Corning assay plates already containing 5 μL of each compound at concentrations ranging from 0.0015 to 50 μM and controls. The plates were incubated at 37°C for 96 hours upon which 15 μL of lysis buffer (0.5 mM CPRG, 0.5% NP40) were added to each well and further incubated for 4 hours in the dark. Absorbance at 585 nm was measured in a Perkin Elmer Envision plate reader.

T. cruzi epimastigotes = test: FACS analysis of T. cruzi epimastigotes (cell cycle, size and complexity); assay type: cell-based, Trypanosoma cruzi; details: 72 h
Experimental: FACS analysis was used to study cell cycle progression and cellular parameters such as size and complexity. 5 × 10^6 T. cruzi epimastigotes were harvested by centrifugation at 1,000×g and 4°C after 72 hours of incubation in a 6-well plate in the presence and in absence of test compounds. Pellets of cells were washed with 5 mL of PBS and fixed in a solution of 70% ice-cold ethanol/PBS at -20°C overnight. Cells were then collected by centrifugation, washed with PBS and stained with 40 μg/mL of propidium iodide in PBS containing 10 μg/mL of RNase A at 37°C for 30 minutes. Fluorescence was monitored with a Becton Dickinson FACSCalibur using BD CellQuest Pro version 4.0.2 software with a total of 10,000 events acquired for each sample. The different cell populations as well as mean cellular parameters were determined by FlowJo software.

[2] = tested on: T. cruzi Tulahuen C4 epimastigotes; test: T. cruzi epimastigotes growth inhibition assay (resazurin); assay type: cell-based, Trypanosoma cruzi; details: for EC50: Tulahuen C4, 72 h, resazurin
Experimental: as §1
A resazurin-based assay was set up in 96-well microplates containing 10 μL of test compound at concentrations ranging from 0.39 to 200 μM and log phase parasites seeded at 2 × 10^5 cells per well in a final volume of 100 μL. Maximum DMSO percentage in the well was 0.2%. Positive and negative growth controls were included. Following 72 hour incubation at 28°C with orbital shaking, 10 μL of resazurin solution were added to each well and the plates were returned to the incubator for 4 hours. Resazurin reduction was correlated to cell viability by fluorescence measurement with excitation and emission wavelength bands centered at 550 and 590 nm, respectively, in a Tecan Infinite 200 microplate reader.

[3] = tested on: L. donovani MHOM/ET/67/HU3 transgenic intracellular amastigotes; test: L. donovani intracellular amastigote assay (luciferase, THP-1 macrophages); assay type: cell-based; details: Leishmania donovani, THP-1, 72 h, read-out: EC50 L. donovani
Experimental: Leishmania donovani MHOM/ET/67/HU3 cells with the luciferase gene integrated into the parasite genome was obtained as described. Parasites were grown at 28°C in RPMI 1640-modified medium supplemented with 20% heat-inactivated fetal bovine serum (iFBS, Invitrogen) with […] of hygromycin B.
THP-1 cells were differentiated into macrophages with 20 ng/mL of PMA in a 96-well plate at 3 × 10^4 cells per well for 48 hours followed by 24 hours of culture in fresh medium. Cells were then infected with transgenic stationary L. donovani MHOM/ET/67/HU3 promastigotes expressing the luciferase gene at a multiplicity of infection (MOI) of 10. A volume of 100 μL of culture media containing the test compounds was added to each well and the plates were incubated at 37°C for 72 hours. Luminescence was measured using the Promega kit luciferase assay system.

[4] = tested on: human macrophage THP-1 cells; test: Cytotoxicity in THP-1 macrophages (MTT); assay type: cell-based; details: for EC50: Homo sapiens, read-out: EC50 THP-1
Experimental: Cellular toxicity of compounds in the human macrophage host TPH-1 cell line was determined using the colorimetric MTT-based assay as previously described.
THP-1 cells were seeded at 3 × 10^4 cells/well in 96-well plates and were differentiated to macrophages with 20 ng/ml of PMA treatment for 48 h followed by 24 h incubation in fresh medium. Strasseriolides were added at increasing concentrations up to 50 μM and cells were further incubated at 37°C for 72 h. 10 μL of MTT (5 mg/mL in PBS) were added to each well, and plates were incubated for an additional period of 8 h at 37°C. Formazan crystals were dissolved by adding 50 μL of 20% SDS and absorbance was read at 595 nm using a microplate reader.

L6 rat myoblast cells = test: Cytotoxicity evaluation in L6 cells (resazurin); assay type: cell-based; details: for EC50: Rattus norvegicus, Myoblast, 72 h, read-out: EC50 L6
Experimental: One hundred microliters of supplemented RPMI 1640 medium containing the compounds and controls were added to L6 rat myoblast cells previously seeded (4,000 cells per well) in a 96-well microplate. After 72 hours at 37°C the viable cell number was determined by resazurin reduction. 20 μL of resazurin at 0.11 mg/mL in PBS 1X were added to each well and incubated in the dark for 2 hours at 37°C. Cell viability was estimated by measuring the final fluorescence at 570–590 nm in a Tecan Infinite F200 plate reader.

[5] = Trypanosoma cruzi, TULAHUEN, 72 h

Row | SMILES | inhibition at 0.00152588 µM [1] | inhibition at 0.00305176 µM [1] | inhibition at 0.00610352 µM [1] | inhibition at 0.012207 µM [1] | inhibition at 0.0244141 µM [1] | inhibition at 0.0488281 µM [1] | inhibition at 0.0976562 µM [1] | inhibition at 0.195312 µM [1] | inhibition at 0.390625 µM [1] | inhibition at 0.78125 µM [1] | inhibition at 1.5625 µM [1] | inhibition at 3.125 µM [1] | inhibition at 6.25 µM [1] | inhibition at 12.5 µM [1] | inhibition at 25 µM [1] | inhibition at 50 µM [1] | EC50 [1] | EC50 [2, 5] | EC50 [3] | Selectivity index intracellular L. donovani versus THP-1 cells [4] | further results
1 | O=C(Cn1ccnc1[N+](=O)[O-])NCc1ccccc1 [Benznidazole, benznidazole] | 5.83% | 3.46% | 5.29% | 6.58% | 1.91% | 12.4% | 10.6% | 16.3% | 10.8% | 34.7% | 74% | 104% | 101% | 103% | 106% | 105% | 1 µM | 13 µM |  |  | Foward Scatter (FSC) - Geometric Mean, single experiment (T. cruzi epimastigotes; EC30): 93.4 and 92.7; Foward Scatter (FSC) - Geometric Mean, Average (T. cruzi epimastigotes; EC30, control 96.65): 93.05; Foward Scatter (FSC) - Geometric Mean, single experiment (T. cruzi epimastigotes; EC70): 96.7 and 91.2; Foward Scatter (FSC) - Geometric Mean, Average (T. cruzi epimastigotes; EC70, control 96.65): 93.95; Foward Scatter (FSC) - Geometric Mean, single experiment (T. cruzi epimastigotes; EC90): 75.3 and 74.1; Foward Scatter (FSC) - Geometric Mean, Average (T. cruzi epimastigotes; EC90, control 96.65): 74.7; EC30, epimastigotes ([2]; 72 h, from dose-response curve): 7.5 µM; EC70, epimastigotes ([2]; 72 h, from dose-response curve): 22.5 µM; EC90 [2, 5]: 96 µM
2 | C/C1=C\[C@H](C)CCC(=O)/C(C)=C/[C@H](C)C[C@@H](C)CC[C@@H]([C@@H](C)C(=O)O)OC(=O)[C@@H](C)C1 [Strasseriolide A, strasseriolide A] | 11.7% | 9.68% | 6.95% | 5.87% | 3.26% | 6.89% | 2.91% | 12.5% | 4.42% | 3.14% | 3.55% | 3.27% | 4.63% | 11.4% | 39.4% | 86.7% | 31 µM | > 50 µM | > 15 µM | > 8 | EC50 ([4]; THP-1, 72 h, MTT): > 125 µM; cell growth reduction, epimastigotes ([2]; 72-hour exposure, 50 μM): less than 50%; Selectivity index T. cruzi Tulahuen C4 versus L6 cells (L6 rat myoblast cells): > 1; EC50 (L6 rat myoblast cells; resazurin): > 50 µM
3 | C/C1=C\[C@H](C)CC[C@@H](O)/C(C)=C/[C@H](C)C[C@@H](C)CC[C@@H]([C@@H](C)C(=O)O)OC(=O)[C@@H](C)C1 [Strasseriolide B, strasseriolide B] | 4.52% | 4.82% | 6.25% | 11.4% | 8.7% | 6.79% | 10.8% | 52.7% | 98.7% | 112% | 113% | 113% | 113% | 113% | 115% | 117% | 0.21 µM | < 0.4 µM | 0.032 µM | 4962 | EC50 ([4]; THP-1, 72 h): 161 µM; EC50 [2]: < 0.39 µM; Selectivity index T. cruzi Tulahuen C4 versus L6 cells (L6 rat myoblast cells): 1; EC50 (L6 rat myoblast cells): 0.3 µM
